pIC50: −log10 of the molar value.
Biological target: T1, Gag-Pol polyprotein [600-1027,R876K]/[600-1155] (Human immunodeficiency virus 1, UniProt P03366, R876K)
T1 construct: 600-1027; 600-1155
Assay: HIV-1 RT Assay

O=C1Nc2c(CO)ccnc2N(C2CC2)c2ncccc21
pIC50 (pH 7.8, 22 °C): 5.52

Nc1ccc(OCc2ccnc3c2NC(=O)c2cccnc2N3C2CC2)cc1 [7-(4-aminophenoxymethyl)-2-cyclopropyl-2,4,9,15-tetraazatricyclo[9.4.0.0^{3,8}]pentadeca-1(11),3,5,7,12,14-hexaen-10-one]
pIC50: 7.00
